From patent publication US11053241B2, “TYK2 inhibitors and uses thereof” (Nimbus Lakshmi, Inc., priority 2018, dated 2021)

What was measured:
[1] = target: human TYK2 (JH2domain-pseudokinase) (Homo sapiens (Human), UniProt P29597); assay: TYK2 JH2 Domain Binding Assay (KINOMEscan); details: 11-point 3-fold dilution, top concentration 30,000 nM, duplicate
Experimental: Binding constants for compounds of the present invention against the JH2 domain were determined by the following protocol for a KINOMEscan® assay (DiscoveRx). A fusion protein of a partial length construct of human TYK2 (JH2domain-pseudokinase) (amino acids G556 to D888 based on reference sequence NP_003322.3) and the DNA binding domain of NFkB was expressed in transiently transfected HEK293 cells. From these HEK 293 cells, extracts were prepared in M-PER extraction buffer (Pierce) in the presence of Protease Inhibitor Cocktail Complete (Roche) and Phosphatase Inhibitor Cocktail Set II (Merck) per manufacturers' instructions. The TYK2(JH2domain-pseudokinase) fusion protein was labeled with a chimeric double-stranded DNA tag containing the NFkB binding site (5′-GGGAATTCCC-3′) fused to an amplicon for qPCR readout, which was added directly to the expression extract (the final concentration of DNA-tag in the binding reaction is 0.1 nM).
Streptavidin-coated magnetic beads (Dynal M280) were treated with a biotinylated small molecule ligand for 30 minutes at room temperature to generate affinity resins for the binding assays. The liganded beads were blocked with excess biotin and washed with blocking buffer (SeaBlock (Pierce), 1% BSA, 0.05% Tween 20, 1 mM DTT) to remove unbound ligand and to reduce nonspecific binding.
The binding reaction was assembled by combining 16 μl of DNA-tagged kinase extract, 3.8 μl liganded affinity beads, and 0.18 μl test compound (PBS/0.05% Tween 20/10 mM DTT/0.1% BSA/2 μg/ml sonicated salmon sperm DNA). Extracts were used directly in binding assays without any enzyme purification steps at a ≥10,000-fold overall stock dilution (final DNA-tagged enzyme concentration <0.1 nM). Extracts were loaded with DNA-tag and diluted into the binding reaction in a two step process. First extracts were diluted 1:100 in 1× binding buffer (PBS/0.05% Tween 20/10 mM DTT/0.1% BSA/2 μg/ml sonicated salmon sperm DNA) containing 10 nM DNA-tag. This dilution was allowed to equilibrate at room temperature for 15 minutes and then subsequently diluted 1:100 in 1× binding buffer. All reactions were performed in polypropylene 384-well plates. Each was a final volume of 0.02 mL. Assays were incubated with shaking for 1 hour at room temperature. Then the beads were pelleted and washed with wash buffer (1×PBS, 0.05% Tween 20) to remove displaced kinase and test compound. The washed based were re-suspended in elution buffer (1×PBS, 0.05% Tween 20, 0.5 μM non-biotinylated affinity ligand) and incubated at room temperature with shaking for 30 minutes. The kinase concentration in the eluates was measured by qPCR. qPCR reactions were assembled by adding 2.5 μL of kinase eluate to 7.5 μL of qPCR master mix containing 0.15 μM amplicon primers and 0.15 μM amplicon probe. The qPCR protocol consisted of a 10 minute hot start at 95° C., followed by 35 cycles of 95° C. for 15 seconds, 60° C. for 1 minute.
Test compounds were prepared as 111× stocks in 100% DMSO. Kd values were determined using an 11-point 3-fold compound dilution series with three DMSO control points. All compounds for Kd measurements are distributed by acoustic transfer (non-contact dispensing) in 100% DMSO. The compounds were then diluted directly into the assays such that the final concentration of DMSO was 0.9%. The Kd values were determined using a compound top concentration of 30,000 nM. Kd measurements were performed in duplicate.
Binding constants (Kds) were calculated with a standard dose-response curve using the Hill equation: […]
The Hill Slope was set to −1. Curves were fitted using a non-linear least square fit with the Levenberg-Marquardt algorithm (Levenberg, K., A method for the solution of certain non-linear problems in least squares, Q. Appl. Math. 2, 164-168 (1944)).

TYK2 kinase domain (JH1) = TYK2 kinase domain (JH1) (Homo sapiens (Human), UniProt P29597); assay: TYK2 Radioactive Kinase Assay; type: biochemical; details: compound at 10 μM; ATP at 10 μM; 120 min at room temp
Experimental: (§1) Peptide substrate, [KKSRGDYMTMQIG], (20 μM) was prepared in reaction buffer (20 mM Hepes pH 7.5, 10 mM MgCl2, 1 mM EGTA, 0.02% Brij35, 0.02 mg/mL BSA, 0.1 mM […], 2 mM DTT, 1% DMSO). TYK2 (Invitrogen) kinase was added, followed by compounds in DMSO. ^33PATP was added to initiate the reaction in ATP at 10 μM. The kinase reaction was incubated for 120 min at room temp and reactions were spotted onto P81 ion exchange paper (Whatman #3698-915), and then washed extensively in 0.75% phosphoric acid, prior to reading the radioactivity counts. For JAK2 (Invitrogen) kinase assay the peptide substrate poly[Glu:Tyr](4:1), 0.2 mg/ml was used, in the reaction carried out the same as for TYK2.
(§2) The TYK2 and JAK2 radioactive kinase assay measures the percent inhibition at the TYK2 kinase domain (JH1) and the percent inhibition at the JAK2 kinase domain (JH1). Results of the assay are expressed as percent inhibition at 10 μM.

JAK2 kinase domain (JH1) = JAK2 kinase domain (JH1) (Homo sapiens (Human), UniProt O60674); assay: JAK2 Radioactive Kinase Assay; type: biochemical; details: compound at 10 μM; ATP at 10 μM; substrate poly[Glu:Tyr](4:1)
Experimental: as §1, §2

JAK2 kinase domain (JH1), sequence (O60674 849-1124): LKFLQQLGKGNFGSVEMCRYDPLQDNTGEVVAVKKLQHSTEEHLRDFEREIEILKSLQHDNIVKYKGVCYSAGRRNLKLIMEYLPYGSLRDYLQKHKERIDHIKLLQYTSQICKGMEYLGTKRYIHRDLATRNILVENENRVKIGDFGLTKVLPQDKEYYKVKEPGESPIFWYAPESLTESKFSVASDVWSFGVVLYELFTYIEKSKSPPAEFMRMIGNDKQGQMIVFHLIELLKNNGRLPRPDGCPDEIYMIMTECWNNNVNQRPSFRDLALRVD
human TYK2 (JH2domain-pseudokinase), sequence (P29597 556-888): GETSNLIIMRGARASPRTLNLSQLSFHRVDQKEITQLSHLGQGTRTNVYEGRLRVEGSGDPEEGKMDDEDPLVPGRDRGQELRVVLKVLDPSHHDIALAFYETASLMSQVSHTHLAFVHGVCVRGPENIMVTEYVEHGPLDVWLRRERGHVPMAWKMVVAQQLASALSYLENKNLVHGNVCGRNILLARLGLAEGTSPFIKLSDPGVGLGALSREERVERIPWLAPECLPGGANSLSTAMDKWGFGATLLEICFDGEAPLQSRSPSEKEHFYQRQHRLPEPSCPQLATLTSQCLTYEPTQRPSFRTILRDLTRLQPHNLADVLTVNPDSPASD
TYK2 kinase domain (JH1), sequence (P29597 897-1176): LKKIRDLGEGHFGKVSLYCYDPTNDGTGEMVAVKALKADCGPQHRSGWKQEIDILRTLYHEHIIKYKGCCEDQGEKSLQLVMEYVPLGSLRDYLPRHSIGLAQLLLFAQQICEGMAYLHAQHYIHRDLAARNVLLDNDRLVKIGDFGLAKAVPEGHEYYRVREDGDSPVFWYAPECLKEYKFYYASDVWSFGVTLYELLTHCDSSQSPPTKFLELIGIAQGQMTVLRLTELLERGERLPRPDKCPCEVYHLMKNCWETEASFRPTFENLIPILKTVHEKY

Structure (SMILES) | Kd [1] | inhibition at 10 µM (TYK2 kinase domain (JH1)) | inhibition at 10 µM (JAK2 kinase domain (JH1))
CNC(=O)c1cnc(NC(=O)C2CC2)c2[nH]c(-c3ccccc3C3(S(C)(=O)=O)CC3)cc12 [Compound I-5, 7-(cyclopropanecarboxamido)-N-methyl-2-(2-(1-(methylsulfonyl)cyclopropyl)phenyl)-1H-pyrrolo[2,3-c]pyridine-4-carboxamide] | 1 to 10 nM | < 50% | < 50%
[2H]C([2H])([2H])NC(=O)c1cnc(NC(=O)C2CC2)c2[nH]c(-c3cccc(-c4ncn(C)n4)c3)cc12 [Compound I-6, 7-(cyclopropanecarboxamido)-N-(methyl-d3)-2-(3-(1-methyl-1H-1,2,4-triazol-3-yl)phenyl)-1H-pyrrolo[2,3-c]pyridine-4-carboxamide] | < 0.2 nM | < 50% | < 50%
CNC(=O)c1cnc(NC(=O)C2CC2)c2[nH]c(-c3cccc(-n4nccn4)c3)cc12 [Compound I-8, 2-(3-(2H-1,2,3-triazol-2-yl)phenyl)-7-(cyclopropanecarboxamido)-N-methyl-1H-pyrrolo[2,3-c]pyridine-4-carboxamide] | 1 to 10 nM | < 50% | < 50%
CNC(=O)c1cnc(NC(=O)C2CC2)c2[nH]c(-c3ccc(C4=NC(C)(C)CO4)cc3OC)cc12 [Compound I-9, 7-(cyclopropanecarboxamido)-2-(4-(4,4-dimethyl-4,5-dihydrooxazol-2-yl)-2-methoxyphenyl)-N-methyl-1H-pyrrolo[2,3-c]pyridine-4-carboxamide] | 0.2 to 1 nM | < 50% | < 50%
CNC(=O)c1cnc(NC(=O)C2CC2)c2[nH]c(-c3cc(-c4csc(C)n4)ccn3)cc12 [Compound I-10, 7-(cyclopropanecarboxamido)-N-methyl-2-(4-(2-methylthiazol-4-yl)pyridin-2-yl)-1H-pyrrolo[2,3-c]pyridine-4-carboxamide] | 0.2 to 1 nM | < 50% | < 50%
CNC(=O)c1cnc(NC(=O)C2CC2)c2[nH]c(-c3cccc(C4=NC(C)(C)CS4)c3)cc12 [Compound I-11, 7-(cyclopropanecarboxamido)-2-(3-(4,4-dimethyl-4,5-dihydrothiazol-2-yl)phenyl)-N-methyl-1H-pyrrolo[2,3-c]pyridine-4-carboxamide] | 0.2 to 1 nM | < 50% | < 50%
CNC(=O)c1cnc(NC(=O)C2CC2)c2[nH]c(-c3cc(-c4ncn(C)n4)ccn3)cc12 [Compound I-13, 7-(cyclopropanecarboxamido)-N-methyl-2-(4-(1-methyl-1H-1,2,4-triazol-3-yl)pyridin-2-yl)-1H-pyrrolo[2,3-c]pyridine-4-carboxamide] | < 0.2 nM | < 50% | < 50%
CNC(=O)c1cnc(NC(=O)C2CC2)c2[nH]c(-c3ccc4nc(C)n(C)c4c3F)cc12 [Compound I-92, 7-(cyclopropanecarboxamido)-2-(7-fluoro-1,2-dimethyl-1H-benzo[d]imidazol-6-yl)-N-methyl-1H-pyrrolo[2,3-c]pyridine-4-carboxamide] | < 0.2 nM | – | –
CNC(=O)c1cnc(NC(=O)C2CC2)c2[nH]c(-c3cccc([C@H]4C[C@H](OC)C4)c3F)cc12 [Compound I-94, 7-(cyclopropanecarboxamido)-2-(2-fluoro-3-((1r,3r)-3-methoxycyclobutyl)phenyl)-N-methyl-1H-pyrrolo[2,3-c]pyridine-4-carboxamide] | < 0.2 nM | – | –
CNC(=O)c1cnc(NC(=O)C2CC2)c2[nH]c(-c3cccc(C4CCCO4)c3F)cc12 (stereo not shown) [Compound I-95, 7-(cyclopropanecarboxamido)-2-(2-fluoro-3-(tetrahydrofuran-2-yl)phenyl)-N-methyl-1H-pyrrolo[2,3-c]pyridine-4-carboxamide] | < 0.2 nM | – | –
CNC(=O)c1cnc(NC(=O)C2CC2)c2[nH]c(N3CCCCC3)cc12 [Compound I-96, 7-(cyclopropanecarboxamido)-N-methyl-2-(piperidin-1-yl)-1H-pyrrolo[2,3-c]pyridine-4-carboxamide] | > 10 nM | – | –
CNC(=O)c1cnc(NC(=O)C2CC2)c2[nH]c(-c3ccc(C(=O)N4CC(F)(F)C4)cc3F)cc12 [Compound I-98, 7-(cyclopropanecarboxamido)-2-(4-(3,3-difluoroazetidine-1-carbonyl)-2-fluorophenyl)-N-methyl-1H-pyrrolo[2,3-c]pyridine-4-carboxamide] | < 0.2 nM | – | –

Next, values leading:

Kd [1] | inhibition at 10 µM (TYK2 kinase domain (JH1)) | inhibition at 10 µM (JAK2 kinase domain (JH1)) | Structure (SMILES)
0.2 to 1 nM | < 50% | < 50% | [2H]C([2H])([2H])NC(=O)c1cnc(NC(=O)C2CC2)c2[nH]c(-c3ccccc3)cc12 [Compound I-3, 7-(cyclopropanecarboxamido)-N-(methyl-d3)-2-phenyl-1H-pyrrolo[2,3-c]pyridine-4-carboxamide]
0.2 to 1 nM | < 50% | < 50% | CNC(=O)c1cnc(NC(=O)C2CC2)c2[nH]c(-c3cccc(-n4ccc(C)n4)c3)cc12 [Compound I-7, 7-(cyclopropanecarboxamido)-N-methyl-2-(3-(3-methyl-1H-pyrazol-1-yl)phenyl)-1H-pyrrolo[2,3-c]pyridine-4-carboxamide]
0.2 to 1 nM | – | – | CNC(=O)c1cnc(Nc2ccn(C)n2)c2[nH]c(-c3ccccc3)cc12 [Compound I-93, N-methyl-7-((1-methyl-1H-pyrazol-3-yl)amino)-2-phenyl-1H-pyrrolo[2,3-c]pyridine-4-carboxamide]
< 0.2 nM | – | – | CNC(=O)c1cnc(Nc2ccn(C)n2)c2[nH]c(-c3cccc(-c4cnn(C)c4)c3F)cc12 [Compound I-97, 2-(2-fluoro-3-(1-methyl-1H-pyrazol-4-yl)phenyl)-N-methyl-7-((1-methyl-1H-pyrazol-3-yl)amino)-1H-pyrrolo[2,3-c]pyridine-4-carboxamide]
< 0.2 nM | – | – | CNC(=O)c1cnc(Nc2ccn(C)n2)c2[nH]c(-c3cccc(-c4cnc(C)o4)c3F)cc12 [Compound I-99, 2-(2-fluoro-3-(2-methyloxazol-5-yl)phenyl)-N-methyl-7-((1-methyl-1H-pyrazol-3-yl)amino)-1H-pyrrolo[2,3-c]pyridine-4-carboxamide]
< 0.2 nM | – | – | CNC(=O)c1cnc(Nc2ccn(C)n2)c2[nH]c(-c3cccc(-c4cn5c(n4)COCC5)c3F)cc12 [Compound I-100, 2-(3-(5,6-dihydro-8H-imidazo[2,1-c][1,4]oxazin-2-yl)-2-fluorophenyl)-N-methyl-7-((1-methyl-1H-pyrazol-3-yl)amino)-1H-pyrrolo[2,3-c]pyridine-4-carboxamide]
0.2 to 1 nM | – | – | CNC(=O)c1cnc(NC(=O)C2CC2)c2[nH]c(-c3ccc(-c4ccn(C)n4)cc3F)cc12 [Compound I-101]
